ChEMBL document CHEMBL4342426, “Structure-activity relationship of 4-azaindole-2-piperidine derivatives as agents against Trypanosoma cruzi” (Bioorg Med Chem Lett, 2020)

Key:
[1] = system: Trypanosoma cruzi; assay: microbe, parasite or virus in culture; conditions: Tulahuen CL2, MRC-5 SV2, 168 h
Description: Antitrypanosomal activity against Trypanosoma cruzi Tulahuen CL2 amastigotes infected in human MRC5 SV2 cells incubated for 7 days by chlorophenol red beta-D-galactopyranoside substrate based spectrophotometric assay

[2] = physchem; conditions: buffer, pH 7.4
Description: Lipophilicity, logD of compound at pH 7.4 by HPLC analysis

[3] = cells; conditions: Homo sapiens, MRC-5 SV2, 72 h
Description: (§1) Cytotoxicity against human MRC5 SV2 cells assessed as reduction in cell viability incubated for 3 days by fluorimetry

[4] = in vitro; conditions: mouse, liver microsomes
Description: Metabolic stability in mouse liver microsomes assessed as fraction unbound at 0.5 uM incubated for 30 mins by LC-MS/MS analysis

[5] = system: Leishmania infantum; assay: microbe, parasite or virus in culture; conditions: for IC50: MHOM/MA(BE)/67/ITMAP263, 120 h; for IC90: MHOM/MA(BE)/67/ITMAP263, in Mus musculus, 120 h
Description: Antileishmanial activity against amastigote stage of Leishmania infantum MHOM/MA(BE)/67/ITMAP263 infected in mouse peritoneal macrophage assessed as parasite growth inhibition incubated for 5 days by Giemsa staining based assay

[6] = in vitro; conditions: mouse, liver microsomes; remark: listed apart in the source
Description: Metabolic stability in mouse liver microsomes assessed as intrinsic clearance at 0.5 uM incubated for 30 mins by LC-MS/MS analysis

[7] = in vitro; conditions: human, liver microsomes
Description: Metabolic stability in human liver microsomes assessed as intrinsic clearance at 0.5 uM incubated for 30 mins by LC-MS/MS analysis

[8] = system: Macrophage; assay: cells; conditions: Mus musculus, 72 h
Description: (§2) Cytotoxicity against mouse peritoneal Macrophage cells assessed as reduction in cell viability incubated for 3 days by fluorimetry

[9] = in vitro; conditions: human, MRC5 SV2 cells
Description: as §1

[10] = in vitro; conditions: mouse, peritoneal macrophages
Description: as §2

[11] = system: Trypanosoma brucei rhodesiense; assay: microbe, parasite or virus in culture; conditions: STIB900, 72 h
Description: Antiprotozoal activity against Trypanosoma brucei rhodesiense STIB900 trypomastigotes incubated for 72 hrs by resazurin dye based fluorimetric analysis

[12] = in vitro; conditions: human, MRC5 SV2 cells; remark: listed apart in the source
Description: Selectivity index, ratio of IC50 for human MRC5 SV2 cells to IC50 for Trypanosoma brucei rhodesiense STIB900 trypomastigotes

[13] = system: Trypanosoma brucei; assay: microbe, parasite or virus in culture; conditions: Squib 427, 72 h
Description: Antitrypanosomal activity against Trypanosoma brucei Squib 427 assessed as reduction in parasite growth incubated for 72 hrs by resazurin dye based fluorimetric analysis

[14] = in vitro; conditions: PAMPA
Description: Effective permeability of compound by PAMPA assay

[15] = in vitro; conditions: human, MRC5 SV2 cells; remark: listed apart in the source
Description: Selectivity index, ratio of IC50 for human MRC5 SV2 cells to IC50 for Trypanosoma cruzi Tulahuen CL2 amastigotes infected in human MRC5 SV2 cells

Structure (SMILES)	logD [2]	fraction unbound at 0.5 h, 0.5 µM [4]	IC50 [5]	IC90 [5]	CLint scaled at 0.5 h, 0.5 µM [6]	microsomal CLint at 0.5 h, 0.5 µM [6]	CLint scaled at 0.5 h, 0.5 µM [7]	microsomal CLint at 0.5 h, 0.5 µM [7]	IC90 at 72 h [9]	IC90 at 72 h [10]	IC50 [11]	IC90 [11]	IC50 [13]	IC90 [13]	Papp [14]	IC50 [1]	IC90 [1]	IC50 [3]	IC50 [8]	selectivity ratio [12]	other results
CC(C)(C)c1cc(C(=O)N2CCCC(c3cc4ncccc4[nH]3)C2)on1 (stereo unspecified)	3.4	0.598	64 µM	64 µM	2150 mL/min/kg	403 µL/min/mg	321 mL/min/kg	177 µL/min/mg	64 µM	64 µM	34.7 µM	64 µM	64 µM	64 µM	2.97 ×10⁻⁶ cm/s	2.18 µM	64 µM	64 µM	64 µM	1.83	selectivity ratio [15]: 29.4
O=C(Nc1ccc(-c2cc3ncccc3[nH]2)cc1)c1ccccc1	3.86		45.6 µM	60.5 µM	≥ 597 mL/min/kg	187 µL/min/mg	≥ 105 mL/min/kg	97.5 µL/min/mg	64 µM	59.7 µM	44.6 µM	64 µM	64 µM	64 µM	0.545 ×10⁻⁶ cm/s	25.2 µM	64 µM	64 µM	45.3 µM	1.45	selectivity ratio [15]: 2.54
O=C(c1ccc(F)cc1)N1CCCC(c2cc3nc(Cl)ccc3[nH]2)C1 (stereo unspecified)	3.52	0.676	64 µM	64 µM	1390 mL/min/kg	294 µL/min/mg	125 mL/min/kg	78.4 µL/min/mg	64 µM	64 µM	2.46 µM	15.1 µM	64 µM	64 µM	15 ×10⁻⁶ cm/s	64 µM	64 µM	64 µM	64 µM	26	
CCC(=O)N1CCCC(c2nc3ncc(Cl)cc3[nH]2)C1 (stereo unspecified)	2.17	0.866	64 µM	64 µM	472 mL/min/kg	128 µL/min/mg	< 28.3 mL/min/kg	< 23 µL/min/mg	64 µM	64 µM	41.9 µM	64 µM	64 µM	64 µM	9.01 ×10⁻⁶ cm/s	64 µM	64 µM	64 µM	64 µM	1.53	

Further molecules by falling IC50 [5], results first:

logD [2]	fraction unbound at 0.5 h, 0.5 µM [4]	IC50 [5]	IC90 [5]	CLint scaled at 0.5 h, 0.5 µM [6]	microsomal CLint at 0.5 h, 0.5 µM [6]	CLint scaled at 0.5 h, 0.5 µM [7]	microsomal CLint at 0.5 h, 0.5 µM [7]	IC90 at 72 h [9]	IC90 at 72 h [10]	IC50 [11]	IC90 [11]	IC50 [13]	IC90 [13]	Papp [14]	Structure (SMILES)	IC50 [1]	IC90 [1]	IC50 [3]	IC50 [8]	selectivity ratio [12]	other results
3.88	0.713	64 µM	64 µM	1110 mL/min/kg	247 µL/min/mg	118 mL/min/kg	77.6 µL/min/mg	64 µM	64 µM	28.7 µM	57.5 µM	64 µM	64 µM	12.2 ×10⁻⁶ cm/s	O=C(c1ccc(F)cc1)N1CCCC(c2cc3nc(C(F)(F)F)ccc3[nH]2)C1 (stereo unspecified)	64 µM	64 µM	64 µM	64 µM	2.19	
4.27	0.491	57 µM	64 µM	2800 mL/min/kg	431 µL/min/mg	193 mL/min/kg	87.8 µL/min/mg	64 µM	64 µM	22.9 µM	62.7 µM	64 µM	64 µM	7.99 ×10⁻⁶ cm/s	O=C(c1cc(C(F)(F)F)no1)N1CCCC(c2cc3ncc(Br)cc3[nH]2)C1 (stereo unspecified)	64 µM	64 µM	64 µM	64 µM	2.8	
